Data published in PMC12051620, “Molecular basis underlying the specificity of an antagonist AA92593 for mammalian melanopsins” (The Journal of Biological Chemistry, 2025).

Target: lanceolatum melanopsin F189^ECL2W/I207^5.42F mutant (Branchiostoma lanceolatum, UniProt A0A2Z4C1D4, F188W/I204F)
Assay: GsX GloSensor assay with Gsα/q11
Assay type: cell-based
Text: We assessed the effect of the antagonist on the mutants using the GsX GloSensor assay with Gsα/q11. […] Furthermore, the double substitution F189^ECL2W/I207^5.42F further increased the susceptibility of the lanceolatum melanopsin to the antagonist by ∼88% (Fig. 7, G, H, and I). The AA92593-induced inhibition of the double mutant F189^ECL2W/I207^5.42F was as efficient as that of human melanopsin (Fig. 7I). […] Taken together, the introduction of Trp-189^ECL2 and Phe-207^5.42 rendered lanceolatum melanopsin highly sensitive to the antagonist (Fig. 7, G, H, and I).
For GloSensor assay, opsins, GloSensor assay sensor (coded by pGlo-22F), and NanoBiT-tagged G proteins were transiently expressed in COS-1 cells (kindly provided from Dr David Farrens, Oregon Health and Science University) using PEI as described previously ([24], [52]). For the GsX GloSensor assay ([12], [13]), each well of a 96-well assay plate (Corning) was transfected with 50 ng opsin plasmid, 16.7 ng G protein plasmid, 50 ng pGlo-22F plasmid (Promega), and 500 ng PEI in 25 μl Opti-mem and 75 μl Dulbecco's modified Eagle's medium (D-MEM). For NanoBiT G protein dissociation assay, each well of a 96-well assay plate was transfected with 50 ng opsin plasmid, 5 ng Lg-BiT inserted Gqα (Gqα-LgBiT) plasmid, 25 ng Gβ1 plasmid, 25 ng Sm-BiT fused Gγ2 plasmid, 5 ng RIC8A plasmid, and 500 ng PEI in 25 μl Opti-mem and 75 μl D-MEM. For GFP-fluorescence microscopy, a 35-mm cell culture dish (IWAKI) was transfected with 2 μg melanopsin-GFP plasmid and 8 μg PEI in 400 μl Opti-mem and 1.2 ml D-MEM. […]
The transfected COS-1 cells were incubated at 37 °C, 5% CO2 for 2 days, and the medium was aspirated and exchanged with 50 μl of HBSS (145 mM NaCl, 10 mM D-glucose, 5 mM KCl, 1 mM MgCl2, 1.7 mM CaCl2, 1.5 mM NaHCO3, 10 mM Hepes, pH 7.4), containing 33.3, 20, 10, 2, 0.2, 0.02, 0.002, or 0 μM AA92593, 0.5% dimetyl sulfoxide (DMSO), and 4% (vol/vol) GloSensor cAMP reagent stock solution. […] Then, the cells were incubated at room temperature for 1 h, and luminescence changes were monitored. After incubation of the cells with AA92593, luminescence measurement was interrupted, the plate was ejected, and the cells were added with 50 μl of HBSS containing 0.2 μM 9-cis-retinal. […] Luminescence was measured using GM-2000 or GM-3510 microplate reader (Promega). Luminescence level of each well was measured every 30 s with integration time of 0.6 to 0.9 s. To illuminate opsins, luminescence measurement was interrupted, the plate was ejected, and the plate was illuminated by white light with CN-160 LED video light (light intensity, ∼9 mW/cm^2) (NEEWER). […] After illumination, luminescence measurement was resumed. The measured luminescence levels were normalized to the level at the starting point (time = 0 min). […]

[1] = relative peak cAMP response vs no AA92593

lanceolatum melanopsin F189^ECL2W/I207^5.42F mutant, sequence (A0A2Z4C1D4 entry or part of it F188W/I204F): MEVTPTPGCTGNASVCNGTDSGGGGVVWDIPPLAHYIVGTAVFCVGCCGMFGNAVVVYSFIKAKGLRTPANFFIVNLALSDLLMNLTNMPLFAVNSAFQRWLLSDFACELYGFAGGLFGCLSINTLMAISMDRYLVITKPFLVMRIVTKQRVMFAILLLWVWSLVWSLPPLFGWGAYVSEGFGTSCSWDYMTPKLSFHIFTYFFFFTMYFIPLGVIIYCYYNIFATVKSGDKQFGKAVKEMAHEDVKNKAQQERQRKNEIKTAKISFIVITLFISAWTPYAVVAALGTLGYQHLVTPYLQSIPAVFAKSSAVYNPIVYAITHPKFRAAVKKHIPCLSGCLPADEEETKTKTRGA

COc1ccc(S(=O)(=O)N2CCCCC2)cc1C [AA92593]
Hill fitting parameter rate of dose-response curve: −0.84 ± 0.75 | IC50: 1.4 ± 0.88 µM | Hill fitting parameter max of dose-response curve [1]: 107.65 ± 12.6 | Hill fitting parameter min of dose-response curve [1]: −5.22 ± 4.53
